Measurements from patent US20170066717A1, “NEW PHENYLAZETIDINECARBOXYLATE OR -CARBOXAMIDE COMPOUNDS” (INVENTIVA, priority 2014, published 2017).
Counter-ions that a name gives are not always drawn.

What was measured:
NURR-1/RXRα = target: T1, NURR-1/RXRα (Homo sapiens, UniProt P19793); test: Transactivation test, NURR-1-Gal4/RXRα, luciferase reporter in Cos-7 cells; format: cell-based; conditions: for Emax: COS-7, induction level relative to reference XCT0135908 at 2×10^−5 M (=100%), read-out: hNurr1_RXRaFL Emax (%); for EC50: Cos-7 cells, NURR-1-Gal4/RXRα, luciferase reporter, read-out: hNurr1_RXRaFL EC50; for hNurr1_RXRaFL Emax (%): induction level relative to reference XCT0135908 at 2×10^−5 M (=100%)
T1 construct: expressed in transfected cells; host or cells: Cos-7 cells

NURR-1/RXRγ = target: T2, NURR-1/RXRγ (Homo sapiens, UniProt P48443); test: Transactivation test, NURR-1-Gal4/RXRγ, luciferase reporter in Cos-7 cells; format: cell-based; conditions: for Emax: COS-7, induction level relative to reference XCT0135908 at 2×10^−5 M (=100%), read-out: hNurr1_RXRgFL Emax (%); for EC50: Cos-7 cells, NURR-1-Gal4/RXRγ, luciferase reporter, read-out: hNurr1_RXRgFL EC50; for hNurr1_RXRgFL Emax (%): induction level relative to reference XCT0135908 at 2×10^−5 M (=100%)
T2 construct: expressed in transfected cells; host or cells: Cos-7 cells
T2 sequence (P48443 whole entry, the tested form may be a part): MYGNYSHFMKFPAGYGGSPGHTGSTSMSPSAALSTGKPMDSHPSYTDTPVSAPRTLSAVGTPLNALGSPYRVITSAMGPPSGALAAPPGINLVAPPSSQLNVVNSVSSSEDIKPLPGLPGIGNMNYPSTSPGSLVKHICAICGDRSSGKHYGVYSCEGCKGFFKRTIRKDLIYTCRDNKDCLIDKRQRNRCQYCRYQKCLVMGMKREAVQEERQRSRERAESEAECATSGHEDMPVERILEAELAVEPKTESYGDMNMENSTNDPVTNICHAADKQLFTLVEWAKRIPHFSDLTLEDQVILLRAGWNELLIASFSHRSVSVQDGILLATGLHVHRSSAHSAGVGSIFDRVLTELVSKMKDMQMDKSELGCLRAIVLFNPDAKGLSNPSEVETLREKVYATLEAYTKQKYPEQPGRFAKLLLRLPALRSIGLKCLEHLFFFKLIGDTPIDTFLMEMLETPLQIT
T2 sequence (P43354 whole entry partner, the tested form may be a part): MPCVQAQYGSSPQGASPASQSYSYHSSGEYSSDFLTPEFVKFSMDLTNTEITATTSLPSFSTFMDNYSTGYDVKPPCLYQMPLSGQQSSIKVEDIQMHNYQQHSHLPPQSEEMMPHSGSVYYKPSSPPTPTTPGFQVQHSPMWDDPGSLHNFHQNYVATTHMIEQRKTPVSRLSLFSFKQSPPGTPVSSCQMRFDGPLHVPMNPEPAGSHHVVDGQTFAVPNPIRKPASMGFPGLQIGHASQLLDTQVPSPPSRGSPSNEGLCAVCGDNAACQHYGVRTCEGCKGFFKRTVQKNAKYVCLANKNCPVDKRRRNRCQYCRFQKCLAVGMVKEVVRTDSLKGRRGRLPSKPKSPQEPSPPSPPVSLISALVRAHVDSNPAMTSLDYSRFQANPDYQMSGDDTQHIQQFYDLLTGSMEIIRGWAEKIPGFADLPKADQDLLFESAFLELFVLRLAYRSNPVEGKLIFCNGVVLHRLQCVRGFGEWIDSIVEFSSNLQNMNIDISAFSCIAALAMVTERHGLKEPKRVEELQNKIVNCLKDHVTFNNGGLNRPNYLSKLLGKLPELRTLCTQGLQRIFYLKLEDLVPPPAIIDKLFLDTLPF
T2 sequence (P04386 1-147 partner limits assumed): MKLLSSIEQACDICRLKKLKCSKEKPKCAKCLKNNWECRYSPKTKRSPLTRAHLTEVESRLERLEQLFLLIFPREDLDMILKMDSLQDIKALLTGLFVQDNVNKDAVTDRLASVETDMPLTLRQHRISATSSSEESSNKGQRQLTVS

T1 sequence (P19793 whole entry, the tested form may be a part): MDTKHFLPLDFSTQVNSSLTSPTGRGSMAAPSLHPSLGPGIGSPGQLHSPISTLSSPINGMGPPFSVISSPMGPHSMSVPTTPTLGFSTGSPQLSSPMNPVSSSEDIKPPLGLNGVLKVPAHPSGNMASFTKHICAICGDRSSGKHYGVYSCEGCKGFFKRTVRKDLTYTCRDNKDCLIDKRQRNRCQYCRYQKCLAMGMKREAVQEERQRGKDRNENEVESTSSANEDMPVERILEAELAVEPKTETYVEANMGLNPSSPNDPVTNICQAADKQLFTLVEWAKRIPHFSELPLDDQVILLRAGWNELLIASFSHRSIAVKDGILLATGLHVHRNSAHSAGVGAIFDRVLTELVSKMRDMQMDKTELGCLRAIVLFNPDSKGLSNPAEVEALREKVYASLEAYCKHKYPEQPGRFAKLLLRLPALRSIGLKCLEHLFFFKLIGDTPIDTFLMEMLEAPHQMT
T1 sequence (P43354 whole entry partner, the tested form may be a part): as the sequence (P43354 whole entry partner, the tested form may be a part) above
T1 sequence (P04386 1-147 partner limits assumed): as the sequence (P04386 1-147 partner limits assumed) above

melting point [°C]	Emax (NURR-1/RXRα) [%]	EC50 (NURR-1/RXRα) [µM]	Emax (NURR-1/RXRγ) [%]	EC50 (NURR-1/RXRγ) [µM]	hNurr1_RXRaFL Emax (%) (NURR-1/RXRα)	hNurr1_RXRgFL Emax (%) (NURR-1/RXRγ)	SMILES
49 to 63	–	–	–	–	–	–	O=C(O)C1CN(c2cccc(N3CCOc4cc(C(F)(F)F)ncc43)c2)C1 (as salt: sodium) [Example 240, sodium 1-[3-[7-(trifluoromethyl)-2,3-dihydropurido[4,3][1,4]oxazin-4-yl]phenyl]azetidine-3-carboxylate]
57 to 70	–	0.073	–	0.126	58	46	CC(C)CC1Oc2cc(C(F)(F)F)ccc2N(c2cccc(N3CC(C(=O)O)C3)c2)C1=O (single isomer, unassigned; isomer 2) [Example 246-2, 1-[3-[2-isobutyl-3-oxo-7-(trofluormethyl)-1,4-benzoxazin-4-yl]phenyl]azetidine-3-carboxylic acid, isomer 2]
245 to 246	94	0.00091	–	–	–	–	CN1CC(C)(C)Oc2cc(C(C)(C)C)cc(-c3cccc(N4CC(C(=O)[O-])C4)c3)c21.[Na+] [Example 211, sodium 1-[3-(7-tert-butyl-2,2,4-trimethyl-3H-1,4-benzoxazin-5-yl)phenyl]azetidine-3-carbxoylate]
88 to 104	–	–	–	–	–	–	CC1(C)Oc2cc(C#N)ccc2N(c2cccc(N3CC(C(=O)O)C3)c2)C1=O [Example 253, 1-[3-(7-cyano-2,2-dimethyl-3-oxo-1,4-benzoxazin-4-yl)phenyl]azetidine-3-carboxylic acid]
212 to 233	115	0.013	–	–	–	–	CC1(C)C=C(c2cccc(N3CC(C(=O)[O-])C3)c2)c2ccc(C(C)(C)C)cc2O1.[Na+] [Example 267, sodium 1-[3-(7-tert-butyl-2,2-dimethylchromen-4-yl)phenyl]azetidine-3-carboxylate]
177 to 191	107	~0.001	–	–	–	–	O=C([O-])C1CN(c2cccc(C3=CC4(CCC4)Oc4cc(C(F)(F)F)ccc43)c2)C1.[Na+] [Example 268, sodium 1-[3-[7-(trifluoromethyl)spiro[chromene-2,1′-cyclobutane]-4-yl]phenyl]azetidine-3-carboxylate]
141 to 146	114	0.026	–	–	–	–	CC1(C)N=C(c2cccc(N3CC(C(=O)[O-])C3)c2)c2ccc(C(F)(F)F)cc2O1.[Na+] [Example 271, sodium 1-[3-[2,2-dimethyl-7-(trifluoromethyl)-1,3-benzoxazin-4-yl]phenyl]azetidine-3-carboxylate]

The next lines start with the compound.

SMILES	melting point [°C]	Emax (NURR-1/RXRα) [%]	EC50 (NURR-1/RXRα) [µM]	Emax (NURR-1/RXRγ) [%]	EC50 (NURR-1/RXRγ) [µM]	hNurr1_RXRaFL Emax (%) (NURR-1/RXRα)	hNurr1_RXRgFL Emax (%) (NURR-1/RXRγ)
CC1COc2cc(C(F)(F)F)ccc2N1c1cccc(N2CC(C(=O)O)C2)c1 (single isomer, unassigned; isomer 1) [Example 124-1, 1-[3-[3-methyl-7-(trifluoromethyl)-2,3-dihydro-1,4-benzoxazin-4-yl]phenyl]azetidine-3-carboxylic acid, isomer 1]	61	107	0.118	101	0.211	–	–
CC1(C)CCC2C(C1)c1cc(C(F)(F)F)ccc1N2c1cccc(N2CC(C(=O)O)C2)c1 (single isomer, unassigned; isomer 1) [Example 145-1, 1-[3-[3,3-dimethyl-6-(trifluoromethyl)-2,4,4a,9a-tetrahydro-1H-carbazol-9-yl]phenyl]azetidine-3-carboxylic acid (isomer 1)]	84 to 91	82	0.037	90	0.103	–	–
CC1(C)CCC2C(C1)c1cc(C(F)(F)F)ccc1N2c1cccc(N2CC(C(=O)O)C2)c1 (single isomer, unassigned; isomer 2) [Example 145-2, 1-[3-[3,3-dimethyl-6-(trifluoromethyl)-2,4,4a,9a-teterahydro-1H-carbazol-9-yl]phenyl]azetidine-3-carboxylic acid (isomer 2)]	82 to 94	–	0.002	–	< 0.001	86	99
O=C(O)C1CN(c2cccc(-c3cc(C(F)(F)F)cc4c3NCC3(CCC3)O4)c2)C1 [Example 62, 1-[3-[7-(trifluoromethyl)spiro[3,4-dihydro-1,4-benzoxazine-2,1′-cyclobutane]-5-yl]phenyl]azetidine-3-carboxylic acid]	80 to 85	97	0.004	107	0.007	–	–
O=C(O)C1CN(c2cccc(-c3cc(C(F)(F)F)cc4c3NCCO4)c2)C1 [Example 65, 1-[3-[7-(trifluoromethyl)-3,4-dihydro-2H-1,4-benzoxazin-5-yl]phenyl]azetidine-3-carboxylic acid]	76 to 79	99	0.01	–	–	–	–
CCC1CNc2c(cc(C(F)(F)F)cc2-c2cccc(N3CC(C(=O)O)C3)c2)O1 (stereo not shown) [Example 66, 1-[3-[2-ethyl-7-(trifluoromethyl)-3,4-dihydro-2H-1,4-benzoxazin-5-yl]phenyl]azetidine-3-carboxylic acid]	115 to 121	98	0.008	95	0.025	–	–
Cc1ccc(N2CC(C(=O)O)C2)cc1-c1cccc(C(C)C)c1 [Example 69, 1-[3-(3-isopripylphenyl)-4-methylphenyl]azetidine-3-carboxylic acid]	71 to 76	63	0.146	57	0.142	–	–
CN(C)C(=O)c1cn(-c2cccc(N3CC(C(=O)O)C3)c2)c2ccc(C(F)(F)F)cc12 [Example 131]	230 to 234	55	2.92	–	–	–	–
CCS(=O)(=O)c1cn(-c2cccc(N3CC(C(=O)O)C3)c2)c2ccc(C(F)(F)F)cc12 [Example 138, 1-[3-[3-(ethylsulfonyl)-5-(trifluoromethyl)indol-1-yl]phenyl]azetidine-3-carboxylic acid]	161 to 168	116	0.134	–	–	–	–
CC(C)(C)c1cc2c(c(-c3cccc(N4CC(C(=O)[O-])C4)c3)c1)NCC1(CCC1)O2.[Na+] [Example 205, sodium 1-[3-(7-tert-butylspiro[3,4-dihydro-1,4-benzoxazine-2,1′-cyclobutane]-5-yl)phenyl]azetidine-3-carboxylate]	190 to 200	115	0.004	–	–	–	–
CC(C)c1cc2c(c(-c3cccc(N4CC(C(=O)[O-])C4)c3)c1)NCC(C)(C)C2.[Na+] [Example 208, sodium 1-[3-(6-isopropyl-3,3-dimethyl-2,4-dihydro-1H-quinoline-8-yl)phenyl]azetidine-3-carboxylate]	196 to 203	109	0.011	–	–	–	–
Cc1cc2c(c(-c3cccc(N4CC(C(=O)[O-])C4)c3)c1)NCCC(C)(C)O2.[Na+] [Example 209, sodium 1-[3-(2,2,8-trimethyl4,5-dihydro-3H-1,5-benzoxazepin-6-yl)phenyl]azetidine-3-carboxylate]	145 to 154	95	0.212	–	–	–	–
CC1(C)CCNc2c(cc(C(C)(C)C)cc2-c2cccc(N3CC(C(=O)[O-])C3)c2)O1.[Na+] [Example 210, sodium 1-[3-(8-tert-butyl-2,2-dimethyl-4,5-dihydro-3H-1,5-benzoxazepin-6-yl)phenyl]azetidine-3-carboxylate]	169 to 176	88	0.075	–	–	–	–
